Key:
[1] = molecular target: Metabotropic glutamate receptor 5 (Homo sapiens, UniProt P41594)
[2] = molecular target: Metabotropic glutamate receptor 1 (Homo sapiens, UniProt Q13255)
Chain of Metabotropic glutamate receptor 1 (Q13255 whole entry): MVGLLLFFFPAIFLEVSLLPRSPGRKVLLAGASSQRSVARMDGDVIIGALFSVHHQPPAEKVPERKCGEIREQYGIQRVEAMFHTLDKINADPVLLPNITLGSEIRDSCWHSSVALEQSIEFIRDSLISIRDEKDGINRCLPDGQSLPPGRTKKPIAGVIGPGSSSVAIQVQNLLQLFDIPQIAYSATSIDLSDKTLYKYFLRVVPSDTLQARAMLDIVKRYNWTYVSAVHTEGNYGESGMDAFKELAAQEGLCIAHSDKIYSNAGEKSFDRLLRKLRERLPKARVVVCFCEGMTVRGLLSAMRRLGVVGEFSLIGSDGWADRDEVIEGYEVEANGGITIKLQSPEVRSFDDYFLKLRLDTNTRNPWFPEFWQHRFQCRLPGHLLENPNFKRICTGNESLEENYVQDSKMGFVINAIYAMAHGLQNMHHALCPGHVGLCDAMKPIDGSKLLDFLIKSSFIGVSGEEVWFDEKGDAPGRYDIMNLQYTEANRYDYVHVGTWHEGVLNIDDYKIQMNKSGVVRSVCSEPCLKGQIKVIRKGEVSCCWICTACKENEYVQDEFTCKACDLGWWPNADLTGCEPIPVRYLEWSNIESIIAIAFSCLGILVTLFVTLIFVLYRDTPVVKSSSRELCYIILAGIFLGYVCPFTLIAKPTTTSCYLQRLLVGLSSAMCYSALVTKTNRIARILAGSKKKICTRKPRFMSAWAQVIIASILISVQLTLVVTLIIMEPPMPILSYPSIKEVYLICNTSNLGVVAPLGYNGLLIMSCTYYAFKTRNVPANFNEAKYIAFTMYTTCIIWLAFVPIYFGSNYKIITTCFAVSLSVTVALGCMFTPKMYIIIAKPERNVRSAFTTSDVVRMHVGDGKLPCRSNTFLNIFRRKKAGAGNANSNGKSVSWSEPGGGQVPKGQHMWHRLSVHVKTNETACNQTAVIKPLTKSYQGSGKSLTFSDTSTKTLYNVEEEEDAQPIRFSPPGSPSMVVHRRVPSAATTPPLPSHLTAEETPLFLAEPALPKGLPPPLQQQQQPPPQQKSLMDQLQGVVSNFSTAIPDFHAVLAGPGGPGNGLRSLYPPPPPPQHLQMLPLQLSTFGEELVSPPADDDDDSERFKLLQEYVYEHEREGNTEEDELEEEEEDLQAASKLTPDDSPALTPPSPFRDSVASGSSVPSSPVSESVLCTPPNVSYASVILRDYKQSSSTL

Chain of Metabotropic glutamate receptor 5 (P41594 whole entry): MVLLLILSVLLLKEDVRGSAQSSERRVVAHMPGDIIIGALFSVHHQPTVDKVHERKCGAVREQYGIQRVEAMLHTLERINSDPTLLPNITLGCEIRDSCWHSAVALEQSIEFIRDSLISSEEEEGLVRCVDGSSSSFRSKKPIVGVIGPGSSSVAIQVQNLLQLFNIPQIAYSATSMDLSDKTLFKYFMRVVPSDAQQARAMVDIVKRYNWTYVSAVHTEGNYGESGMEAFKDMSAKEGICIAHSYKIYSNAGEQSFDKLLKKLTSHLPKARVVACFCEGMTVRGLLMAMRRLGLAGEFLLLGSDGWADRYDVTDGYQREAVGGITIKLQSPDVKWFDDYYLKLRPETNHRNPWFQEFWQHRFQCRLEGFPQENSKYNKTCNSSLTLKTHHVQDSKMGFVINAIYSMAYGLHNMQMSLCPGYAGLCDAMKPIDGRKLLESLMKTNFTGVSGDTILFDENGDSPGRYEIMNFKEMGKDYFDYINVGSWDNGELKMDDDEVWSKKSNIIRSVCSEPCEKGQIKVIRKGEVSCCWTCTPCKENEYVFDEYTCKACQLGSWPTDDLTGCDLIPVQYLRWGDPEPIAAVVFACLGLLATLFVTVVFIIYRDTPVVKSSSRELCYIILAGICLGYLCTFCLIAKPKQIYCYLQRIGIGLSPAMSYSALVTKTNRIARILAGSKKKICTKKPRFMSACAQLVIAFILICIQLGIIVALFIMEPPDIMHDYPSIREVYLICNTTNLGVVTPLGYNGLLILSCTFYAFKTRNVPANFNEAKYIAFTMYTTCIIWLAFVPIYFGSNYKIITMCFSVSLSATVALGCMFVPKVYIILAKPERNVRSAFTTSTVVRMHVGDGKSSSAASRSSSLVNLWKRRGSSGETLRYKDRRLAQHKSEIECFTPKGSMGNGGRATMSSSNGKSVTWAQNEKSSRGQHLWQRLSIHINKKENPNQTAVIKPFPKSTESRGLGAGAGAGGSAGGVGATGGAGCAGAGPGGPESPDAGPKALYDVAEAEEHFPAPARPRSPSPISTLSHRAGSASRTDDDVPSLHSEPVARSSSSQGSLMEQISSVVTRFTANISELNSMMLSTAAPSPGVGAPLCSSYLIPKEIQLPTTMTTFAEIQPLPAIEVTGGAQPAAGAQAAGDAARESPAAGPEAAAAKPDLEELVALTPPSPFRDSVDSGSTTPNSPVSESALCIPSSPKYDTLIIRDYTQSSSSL

SMILES	Ki [1]	Ki [2]
N[C@@H](Cn1oc(=O)[nH]c1=O)C(=O)O [2-amino-3-(3,5-dioxo[1,2,4]oxadiazolidin-2-yl)propionic acid]	0.029 µM	–
NC(C(=O)O)c1cc(=O)[nH]o1 (stereo unspecified) [Amino-(3-hydroxy-isoxazol-5-yl)-acetic acid(Ibotenic acid)]	1.9 µM	1.2 µM
Cc1onc(O)c1CC(N)C(=O)O (stereo not drawn) [(RS)-2-amino-3-(3-hydroxy-5-methylisoxazol-4-yl)-propionicacid]	> 10 µM	> 10 µM
N[C@@H](CCP(=O)(O)O)C(=O)O	> 10 µM	> 10 µM
Cc1cc(C(N)C(=O)O)ccc1C(=O)O (stereo unspecified) [2Me4CPG]	> 10 µM	0.7 µM
C[C@@](N)(C(=O)O)c1ccc(C(=O)O)cc1 (racemic)	> 10 µM	> 10 µM
N[C@@]1(C(=O)O)CC[C@H](C(=O)O)C1 [1S, 3R-ACPD]	2.1 µM	–
NC(C(=O)O)c1ccc(C(=O)O)c(O)c1 (stereo unspecified)	2.5 µM	–
N[C@H](CP(=O)(O)O)C(=O)O [CAS_23052-80-4]	> 10 µM	> 10 µM
N[C@H](C(=O)O)c1cccc(O)c1 [(S)-3-Hydroxyphenylglycine]	8.4 µM	> 10 µM

The remaining lines, values ahead:

Ki [1]	Ki [2]	SMILES
> 10 µM	> 10 µM	N[C@H](C(=O)O)C1[C@@H](C(=O)O)[C@@H]1C(=O)O (stereo partly specified) [DCG-IV]
> 10 µM	> 10 µM	NC1(C(=O)O)CCc2cc(C(=O)O)ccc21 (racemic) [AIDA]
3.9 µM	0.9 µM	Nc1nc(O)c2ncn(COC(CO)CO)c2n1 [CAS_82410-32-0]
1.5 µM	2.3 µM	N[C@H](C(=O)O)[C@H]1C[C@H]1C(=O)O [L-CCG-IV]
> 10 µM	> 10 µM	NC(C(=O)O)c1cc(O)ccc1Cl (stereo unspecified) [CHPG]
> 10 µM	3.7 µM	N[C@@H](C(=O)O)c1ccc(C(=O)O)cc1 [(S)-4CPG]
> 10 µM	> 10 µM	O=c1nc2c3cc(-n4ccnc4)c([N+](=O)[O-])cc3[nH]c(=O)n2[nH]1 [Ro-48-8587]
